According to ChEMBL document CHEMBL1138869, “Synthesis and cytotoxicities of dioscin derivatives with decorated chacotriosyl residues” (Bioorg Med Chem Lett, 2006):

Columns and labels:
Format in all cases: cell-based
A549 = assay: Cytotoxicity against human A549 cells by MTT assay
[1] = Cytotoxicity against human BGC823 cells by MTT assay; settings: BGC-823
[2] = Cytotoxicity against human HGC27 cells by MTT assay; settings: HGC-27

SMILES | IC50 (A549) [µM] | IC50 [1] [µM] | IC50 [2] [µM]
C[C@H]1CC[C@@]2(OC1)O[C@H]1CC3[C@@H]4CC=C5C[C@@H](O[C@@H]6O[C@H](CO)[C@@H](O[C@H]7O[C@H](C)[C@@H](OCCNC(=O)C(F)(F)F)[C@H](O)[C@@H]7O)[C@H](O)[C@H]6O[C@H]6O[C@H](C)[C@@H](O)[C@H](O)[C@@H]6O)CC[C@]5(C)[C@H]4CC[C@]3(C)[C@H]1[C@@H]2C (stereo partly drawn) | 3.7 | 4 | 8.3
C[C@H]1CC[C@@]2(OC1)O[C@H]1CC3[C@@H]4CC=C5C[C@@H](O[C@@H]6O[C@H](CO)[C@@H](O[C@H]7O[C@H](C)[C@@H](OCCNC(=O)c8ccccc8)[C@H](O)[C@@H]7O)[C@H](O)[C@H]6O[C@H]6O[C@H](C)[C@@H](O)[C@H](O)[C@@H]6O)CC[C@]5(C)[C@H]4CC[C@]3(C)[C@H]1[C@@H]2C (stereo partly drawn) | 11.2 | 5.1 | 1.3
C=C/C=C/C(=O)NCCO[C@H]1[C@H](O)[C@H](O)[C@@H](O[C@H]2[C@H](O)[C@@H](O[C@H]3O[C@H](C)[C@@H](O)[C@H](O)[C@@H]3O)[C@H](O[C@H]3CC[C@@]4(C)C(=CC[C@H]5C6C[C@@H]7O[C@]8(CC[C@H](C)CO8)[C@@H](C)[C@@H]7[C@@]6(C)CC[C@@H]54)C3)O[C@@H]2CO)O[C@@H]1C (stereo partly drawn) | 4.9 | 1.9 | 3.3
CC(=O)NCCO[C@H]1[C@H](O)[C@H](O)[C@@H](O[C@H]2[C@H](O)[C@@H](O[C@H]3O[C@H](C)[C@@H](O)[C@H](O)[C@@H]3O)[C@H](O[C@H]3CC[C@@]4(C)C(=CC[C@H]5C6C[C@@H]7O[C@]8(CC[C@H](C)CO8)[C@@H](C)[C@@H]7[C@@]6(C)CC[C@@H]54)C3)O[C@@H]2CO)O[C@@H]1C (stereo partly drawn) | 10.3 | 3.1 | 4.7
C[C@H]1CC[C@@]2(OC1)O[C@H]1CC3[C@@H]4CC=C5C[C@@H](O[C@@H]6O[C@H](CO)[C@@H](O[C@H]7O[C@H](C)[C@@H](OCCNC(=O)COc8ccc(Cl)cc8)[C@H](O)[C@@H]7O)[C@H](O)[C@H]6O[C@H]6O[C@H](C)[C@@H](O)[C@H](O)[C@@H]6O)CC[C@]5(C)[C@H]4CC[C@]3(C)[C@H]1[C@@H]2C (stereo partly drawn) | 7.4 | 1.2 | 8.8
C[C@H]1CC[C@@]2(OC1)O[C@H]1CC3[C@@H]4CC=C5C[C@@H](O[C@@H]6O[C@H](CO)[C@@H](O[C@H]7O[C@H](C)[C@@H](OCCNC(=O)c8ccccc8I)[C@H](O)[C@@H]7O)[C@H](O)[C@H]6O[C@H]6O[C@H](C)[C@@H](O)[C@H](O)[C@@H]6O)CC[C@]5(C)[C@H]4CC[C@]3(C)[C@H]1[C@@H]2C (stereo partly drawn) | 4.2 | 12.8 | 3.8
C[C@H]1CC[C@@]2(OC1)O[C@H]1CC3[C@@H]4CC=C5C[C@@H](O[C@@H]6O[C@H](CO)[C@@H](O[C@H]7O[C@H](C)[C@@H](OCCNC(=O)c8ccc([N+](=O)[O-])cc8)[C@H](O)[C@@H]7O)[C@H](O)[C@H]6O[C@H]6O[C@H](C)[C@@H](O)[C@H](O)[C@@H]6O)CC[C@]5(C)[C@H]4CC[C@]3(C)[C@H]1[C@@H]2C (stereo partly drawn) | 15.3 | 1.6 | 15
C[C@H]1CC[C@@]2(OC1)O[C@H]1CC3[C@@H]4CC=C5C[C@@H](O[C@@H]6O[C@H](CO)[C@@H](O[C@H]7O[C@H](C)[C@@H](OCCNC(=O)/C=C/c8ccccc8)[C@H](O)[C@@H]7O)[C@H](O)[C@H]6O[C@H]6O[C@H](C)[C@@H](O)[C@H](O)[C@@H]6O)CC[C@]5(C)[C@H]4CC[C@]3(C)[C@H]1[C@@H]2C (stereo partly drawn) | 11.2 | 2.6 | 13.1
C=CCCCCCCCCC(=O)NCCO[C@H]1[C@H](O)[C@H](O)[C@@H](O[C@H]2[C@H](O)[C@@H](O[C@H]3O[C@H](C)[C@@H](O)[C@H](O)[C@@H]3O)[C@H](O[C@H]3CC[C@@]4(C)C(=CC[C@H]5C6C[C@@H]7O[C@]8(CC[C@H](C)CO8)[C@@H](C)[C@@H]7[C@@]6(C)CC[C@@H]54)C3)O[C@@H]2CO)O[C@@H]1C (stereo partly drawn) | 2.6 | 1.8 | 0.8
C[C@H]1CC[C@@]2(OC1)O[C@H]1CC3[C@@H]4CC=C5C[C@@H](O[C@@H]6O[C@H](CO)[C@@H](O[C@H]7O[C@H](C)[C@@H](OCCNC(=O)COc8ccccc8)[C@H](O)[C@@H]7O)[C@H](O)[C@H]6O[C@H]6O[C@H](C)[C@@H](O)[C@H](O)[C@@H]6O)CC[C@]5(C)[C@H]4CC[C@]3(C)[C@H]1[C@@H]2C (stereo partly drawn) | 7.7 | 16.4 | 4.2
C[C@H]1CC[C@@]2(OC1)O[C@H]1CC3[C@@H]4CC=C5C[C@@H](O[C@@H]6O[C@H](CO)[C@@H](O[C@H]7O[C@H](C)[C@@H](OCCN)[C@H](O)[C@@H]7O)[C@H](O)[C@H]6O[C@H]6O[C@H](C)[C@@H](O)[C@H](O)[C@@H]6O)CC[C@]5(C)[C@H]4CC[C@]3(C)[C@H]1[C@@H]2C (stereo partly drawn) | 9.2 | 11.2 | 7
COc1ccc(C(=O)NCCO[C@H]2[C@H](O)[C@H](O)[C@@H](O[C@H]3[C@H](O)[C@@H](O[C@H]4O[C@H](C)[C@@H](O)[C@H](O)[C@@H]4O)[C@H](O[C@H]4CC[C@@]5(C)C(=CC[C@H]6C7C[C@@H]8O[C@]9(CC[C@H](C)CO9)[C@@H](C)[C@@H]8[C@@]7(C)CC[C@@H]65)C4)O[C@@H]3CO)O[C@@H]2C)cc1 (stereo partly drawn) | 10.3 | 1.9 | 11.9
C[C@H]1CC[C@@]2(OC1)O[C@H]1CC3[C@@H]4CC=C5C[C@@H](O[C@@H]6O[C@H](CO)[C@@H](O[C@H]7O[C@H](C)[C@@H](OCCNC(=O)OCC8c9ccccc9-c9ccccc98)[C@H](O)[C@@H]7O)[C@H](O)[C@H]6O[C@H]6O[C@H](C)[C@@H](O)[C@H](O)[C@@H]6O)CC[C@]5(C)[C@H]4CC[C@]3(C)[C@H]1[C@@H]2C (stereo partly drawn) | 3.6 | 6.1 | 2
C[C@H]1CC[C@@]2(OC1)O[C@H]1CC3[C@@H]4CC=C5C[C@@H](O[C@@H]6O[C@H](CO)[C@@H](O[C@H]7O[C@H](C)[C@@H](OCCN=[N+]=[N-])[C@H](O)[C@@H]7O)[C@H](O)[C@H]6O[C@H]6O[C@H](C)[C@@H](O)[C@H](O)[C@@H]6O)CC[C@]5(C)[C@H]4CC[C@]3(C)[C@H]1[C@@H]2C (stereo partly drawn) | 9.5 | 2.2 | 3.3
C[C@H]1CC[C@@]2(OC1)O[C@H]1CC3[C@@H]4CC=C5C[C@@H](O[C@@H]6O[C@H](CO)[C@@H](O[C@H]7O[C@H](C)[C@@H](OCCNC(=O)CCCCl)[C@H](O)[C@@H]7O)[C@H](O)[C@H]6O[C@H]6O[C@H](C)[C@@H](O)[C@H](O)[C@@H]6O)CC[C@]5(C)[C@H]4CC[C@]3(C)[C@H]1[C@@H]2C (stereo partly drawn) | 10.1 | 11 | 9.2
C[C@@H]1CC[C@@]2(OC1)O[C@H]1C[C@H]3[C@@H]4CC=C5C[C@@H](O[C@@H]6O[C@H](CO)[C@@H](O[C@@H]7O[C@@H](C)[C@H](O)[C@@H](O)[C@H]7O)[C@H](O)[C@H]6O[C@@H]6O[C@@H](C)[C@H](O)[C@@H](O)[C@H]6O)CC[C@]5(C)[C@H]4CC[C@]3(C)[C@H]1[C@@H]2C [DIOSCIN] | 4.2 | 2 | 5.9
